Results published in PubChem BioAssay AID1919009 (Molecular Pharmacology Branch, DTP, NCI, 2023).

Tested on: K24384-001-R-PDC complex spheroid growth
Experiment: Anticancer human tumor K24384-001-R-PDC patient-derived pancreatic adenocarcinoma cell line growth inhibition [AhR]
Conditions: for IC50: curve of first compound; for viability, T/C: stronger effect = lower value
Text: Multicellular complex tumor spheroid response to aryl hydrocarbon receptor antagonists in combination with a variety of drugs and investigational agents in selected tumor cell lines
The current study was undertaken to assess response to aryl hydrocarbon receptor antagonists in combination with standard-of-care drugs and investigational agents in solid tumor complex spheroid models. Complex spheroids include a stromal component modeled by human endothelial cells (HUVEC) and fibroblasts modeled by human mesenchymal stem cells (MSCs). The concentration ranges selected for each drug and investigational agent were based upon clinically achievable concentrations if the clinical Cmax of the agent was known.
Compounds. The drugs and investigational agents: BAY 2416964 (NSC825713), GNF351 (NSC835774), CH-223191 (NSC835775), CPI-455 (NSC825282), aza-TdCyd (NSC777586), decitabine (NSC127716), belinostat (NSC758774), entinostat (NSC756642), pevonedistat (NSC761192), tazemetostat (NSC777109), talazoparib (NSC765396), olaparib (NSC753686), selinexor (NSC780203), nedisertib (M3814, NSC802822), bortezomib (NSC756655), venetoclax (NSC766270), doxorubicin (NSC123127), elimusertib (BAY189344, NSC800525), ceralasertib (AZD6738, NSC777638), TAK-243 (NSC785004), alisertib (NSC759677), etoposide (NSC141540), topotecan (NSC609699), eribulin (NSC707389), gemcitabine (NSC613327), carboplatin (NSC241240), cisplatin (NSC119875), and SN-38 (NSC673596) were obtained from the National Cancer Institute (NCI) Developmental Therapeutics Program Chemical Repository (32). The FDA-approved anticancer drug set is available from the Developmental Therapeutics Program at https://dtp.cancer.gov/organization/dscb/obtaining/available plates.htm. […] The stock solutions were prepared in dimethyl sulfoxide (DMSO, Sigma-Aldrich, St. Louis, MO, cat. D2650), except for the platinum compounds which were prepared in saline (Quality Biological, Gaithersburg, MD, cat. 114-055-101), at 800-fold the tested concentration and stored at -70 degrees C prior to their use. All drugs and investigational agents were tested over a range starting from a high concentration at or near the clinical Cmax and decreasing in half-log increments. If the clinical Cmax for an agent had not been determined, the highest concentration tested was 10 microM (Table 1).
Cell Culture. All cells were maintained in an incubator at 37 degrees C and 5% CO2 with 95% humidity. The PDC lines were cultured according to standard operating procedures established by the NCI PDMR (https://pdmr.cancer.gov). Briefly, all PDCs were thawed and cultured in Matrigel-coated flasks prepared with a working solution of 1X Ham's F-12 nutrient mix, without supplementation (Invitrogen, Waltham, MA, cat. 11765054), 100 U/mL penicillin-streptomycin (Invitrogen, cat. 15140122), and 2.5% Matrigel (Corning Inc., Corning, NY, cat. 354248) for the first three passages. All PDCs were cultured in complete DMEM/F-12 media containing advanced DMEM/F-12 (Invitrogen, cat. 12634028), 4.9% defined fetal bovine serum, heat inactivated (HyClone Laboratories Inc., Logan, UT, cat. SH30070.03HI), 389 ng/mL hydrocortisone (Sigma-Aldrich, cat. H4001), 9.7 ng/mL human EGF recombinant protein (Invitrogen, cat. PHG0313), 23.4 microg/mL adenine (Sigma-Aldrich, cat. A2786), 97.3 U/mL penicillin-streptomycin (Invitrogen, cat. 15140122), 1.9 mM L-glutamine (Invitrogen, cat. 25030081), and 9.7 microM Y-27632 dihydrochloride (Tocris Bioscience, Bristol, United Kingdom, cat. 1254). The PDCs were cultured in complete DMEM/F12 media without 10 microM Y-27632 dihydrochloride for at least two passages prior to the screen. The established cell lines NCI-H1341 and […] were cultured in DMEM/F-12, HEPES (Invitrogen, cat. 11330032), 5% defined fetal bovine serum (HyClone Laboratories Inc., cat. SH30070.03), ITS premix universal culture supplement [insulin (5 microg/mL), transferrin (5 microg/mL), and selenious acid (5 ng/mL)] […]

[1] = second compound 0.1 µM, first compound 0.0316 µM
[2] = second compound 0.1 µM, first compound 0.1 µM
[3] = second compound 0.1 µM, first compound 0.316 µM
[4] = second compound 0.1 µM, first compound 1 µM
[5] = second compound 0.1 µM, first compound 3.16 µM
[6] = second compound 0.1 µM, first compound 10 µM
[7] = second compound 0.316 µM, first compound 0.0316 µM
[8] = second compound 0.316 µM, first compound 0.1 µM
[9] = second compound 0.316 µM, first compound 0.316 µM
[10] = second compound 0.316 µM, first compound 1 µM
[11] = second compound 0.316 µM, first compound 3.16 µM
[12] = second compound 0.316 µM, first compound 10 µM
[13] = second compound 1 µM, first compound 0.0316 µM
[14] = second compound 1 µM, first compound 0.1 µM
[15] = second compound 1 µM, first compound 0.316 µM
[16] = second compound 1 µM, first compound 1 µM
[17] = second compound 1 µM, first compound 3.16 µM
[18] = second compound 1 µM, first compound 10 µM
[19] = second compound 3.16 µM, first compound 0.0316 µM
[20] = second compound 3.16 µM, first compound 0.1 µM
[21] = second compound 3.16 µM, first compound 0.316 µM
[22] = second compound 3.16 µM, first compound 1 µM
[23] = second compound 3.16 µM, first compound 3.16 µM
[24] = second compound 3.16 µM, first compound 10 µM
[25] = second compound 10 µM, first compound 0.0316 µM
[26] = second compound 10 µM, first compound 0.1 µM
[27] = second compound 10 µM, first compound 0.316 µM
[28] = second compound 10 µM, first compound 1 µM
[29] = second compound 10 µM, first compound 3.16 µM
[30] = second compound 10 µM, first compound 10 µM
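For viability, T/C in this document: percent of DMSO vehicle-treated spheroid viability set as 100%.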

Molecule `Nc1ccccc1NC(=O)c1ccc(CNC(=O)OCc2cccnc2)cc1` + CC(CO)NC(=O)c1cc(-c2ccc(Cl)cc2)nn(-c2cnn(C)c2)c1=O has an IC50 (second compound 0.1 µM) of 1960 nM, an IC50 (second compound 0.316 µM) of 1350 nM and an IC50 (second compound 1 µM) of 1180 nM. It also gave an IC50 (second compound 3.16 µM) of 987 nM, an IC50 (second compound 10 µM) of 572 nM and a viability, T/C [1] of 100%. The viability, T/C [2] was 101%, the viability, T/C [3] was 88.2% and the viability, T/C [4] was 60.9%. It also gave a viability, T/C [5] of 41.8%, a viability, T/C [6] of 6.28% and a viability, T/C [7] of 87.6%. It also gave a viability, T/C [8] of 97.7%, a viability, T/C [9] of 80.6% and a viability, T/C [10] of 53.2%. It also gave a viability, T/C [11] of 31.8%, a viability, T/C [12] of 4.37% and a viability, T/C [13] of 88.2%. It also gave a viability, T/C [14] of 94.8%, a viability, T/C [15] of 92.1% and a viability, T/C [16] of 47.4%. It also gave a viability, T/C [17] of 28.8%, a viability, T/C [18] of 4.21% and a viability, T/C [19] of 83.7%. The viability, T/C [20] was 92.4%, the viability, T/C [21] was 79% and the viability, T/C [22] was 44.6%. The viability, T/C [23] was 24.2%, the viability, T/C [24] was 1.77% and the viability, T/C [25] was 70.9%. The viability, T/C [26] was 72.8%, the viability, T/C [27] was 55.9% and the viability, T/C [28] was 40.5%. The viability, T/C [29] was 25.1% and the viability, T/C [30] was 0.88%.

`O=C(C=Cc1cccc(S(=O)(=O)Nc2ccccc2)c1)NO` + CC(CO)NC(=O)c1cc(-c2ccc(Cl)cc2)nn(-c2cnn(C)c2)c1=O showed an IC50 (second compound 0.1 µM) of 1580 nM, an IC50 (second compound 0.316 µM) of 2210 nM and an IC50 (second compound 1 µM) of 2000 nM. For the same molecule, the IC50 (second compound 3.16 µM) was 1600 nM, the IC50 (second compound 10 µM) was 1800 nM and the viability, T/C [1] was 97.1%. For the same molecule, the viability, T/C [2] was 126%, the viability, T/C [3] was 126% and the viability, T/C [4] was 65.4%. For the same molecule, the viability, T/C [5] was 28.5%, the viability, T/C [6] was 2.04% and the viability, T/C [7] was 119%. The viability, T/C [8] was 130%, the viability, T/C [9] was 122% and the viability, T/C [10] was 96.1%. The viability, T/C [11] was 29.3%, the viability, T/C [12] was 1.86% and the viability, T/C [13] was 123%. For the same molecule, the viability, T/C [14] was 127%, the viability, T/C [15] was 137% and the viability, T/C [16] was 81%. The viability, T/C [17] was 30.5%, the viability, T/C [18] was 1.91% and the viability, T/C [19] was 107%. It also gave a viability, T/C [20] of 103%, a viability, T/C [21] of 136% and a viability, T/C [22] of 73.3%. For the same molecule, the viability, T/C [23] was 20.5%, the viability, T/C [24] was 1% and the viability, T/C [25] was 107%. The viability, T/C [26] was 117%, the viability, T/C [27] was 98.9% and the viability, T/C [28] was 73%. It also gave a viability, T/C [29] of 28.4% and a viability, T/C [30] of 0.81%.
